Experimental data as given in US20250311722A1, “IMPROVED BIOCIDE” (Purgos ApS, priority 2022, published 2025).
“And” between values parts separate entries of the source, which are not always exact repeats. Equal values may be shown once.

Columns and labels:
Test in all cases: EN 1276 quantitative suspension test, bactericidal activity
Format in all cases: cell-based
[1] = tested on: Escherichia coli, ATCC 10536
Procedure: (§1) The test was carried out according to EN 1276, 2019: Chemical disinfectants and antiseptics-Quantitative suspension test for the evaluation of bactericidal activity of chemical disinfectants and antiseptics used in food, industrial, domestic, and institutional areas-Test method and requirements. […] The growth media TSB (Tryptic Soy Broth) was separately inoculated with a culture loop of the microorganisms. The cultures were incubated at 37° C. for 24 hours. Bovine Serum Albumin with a final concentration of 3 g/L Polysorbate 80 with a concentration of 30 g/L The used method was Dilution-neutralization method. 1 mL of interfering substance was pipetted into a tube and 1 mL of the test suspension was added and mixed. […] The solution was incubated at 20° C. for 5 min. and 60 min. respectively. […] After 5 min. of neutralization time 100 μL of the mixture was added to a petri-dish containing TSA media. Another 100 μL was added to a tube containing 900 μL 0.9% NaCl and a serial dilution to 10^-5 was made. The mixtures added to the agar plates were evenly distributed with a Drigalski-spatula. The agar plates were incubated at 37° C. for 24 hours. After incubation, the number of surviving bacteria (CFU) was counted. The test was performed in 3 replicates.

[2] = tested on: Pseudomonas aeruginosa, ATCC 15442
Procedure: as §1

[3] = tested on: Staphylococcus aureus, ATCC 6538; details: all tested contact times (5, 60 min) and concentrations (1.5%, 3%, 6%)
Procedure: as §1

CCCCN(CCO)CCO [NBDA, N-butyldiethanolamine]
CFU/plate ([1]; 1.5%, contact time 5 min): >165 CFU/plate
log10 reduction ([1]; 1.5%, contact time 5 min): <5 log10
CFU/plate ([1]; 1.5%, contact time 60 min): >165 CFU/plate
log10 reduction ([1]; 1.5%, contact time 60 min): <5 log10
CFU/plate ([1]; 3.0%, contact time 5 min): >165 CFU/plate
log10 reduction ([1]; 3.0%, contact time 5 min): <5 log10
CFU/plate ([1]; 3.0%, contact time 60 min): >165 CFU/plate
log10 reduction ([1]; 3.0%, contact time 60 min): <5 log10
CFU/plate ([1]; 6.0%, contact time 5 min): >165 CFU/plate
log10 reduction ([1]; 6.0%, contact time 5 min): <5 log10
CFU/plate ([1]; 6.0%, contact time 60 min): 25 CFU/plate and 29 CFU/plate and 30 CFU/plate
CFU/plate ([2]; 1.5%, contact time 5 min): >165 CFU/plate
log10 reduction ([2]; 1.5%, contact time 5 min): <5 log10
CFU/plate ([2]; 1.5%, contact time 60 min): >165 CFU/plate
log10 reduction ([2]; 1.5%, contact time 60 min): <5 log10
CFU/plate ([2]; 3.0%, contact time 5 min): >165 CFU/plate
log10 reduction ([2]; 3.0%, contact time 5 min): <5 log10
CFU/plate ([2]; 3.0%, contact time 60 min): >165 CFU/plate
log10 reduction ([2]; 3.0%, contact time 60 min): <5 log10
CFU/plate ([2]; 6.0%, contact time 5 min): >165 CFU/plate
log10 reduction ([2]; 6.0%, contact time 5 min): <5 log10
CFU/plate ([2]; 6.0%, contact time 60 min): 25 CFU/plate and 22 CFU/plate and 35 CFU/plate
log changes of CFU [3]: lower than 5 log units
